Tested on: anaesthetised Sprague Dawley rats
Experiment: Blood pressure test (4-point test against the standard AVP)
Format: in vivo
Conditions: result in words; for potency in respect of blood pressure increase: maximal blood pressure increase after intravenous injections, rats previously treated with dibenamine, related to standard AVP, compared with known derivatives 2 and 3; for specificity (ratio of potency blood pressure/potency antidiuresis, BP/AD): ratio of blood pressure potency to antidiuretic potency, compared with known compounds 1, 2 and 3; for length of the effect (index of persistence, I.P.): duration of the blood pressure effect in relation to standard AVP, compared with known substances 1, 2 and 3
Excerpt: Vasotocin derivatives according to the invention have been tested for potency of both blood pressure and antidiuretic activity in a so-called 4-point test, i.e. the activity of the test substances has been related to a standard preparation (AVP = arginine-vasopressin), and the effects of two dose levels for each substance have been analysed. In addition, two known pressor-specific analogs (VT derivatives) have been tested for a comparison, namely 1-mpa-2-Phe-8-Orn-VT (mpa = 3-mercaptopropionyl) (Huguenin, R.L., Boissonnas, R.A., 1966. Helv. Chim. Acta, 49, 711), and 2-Phe-8-Orn-VT (SE-332993, Sandoz).
Blood pressure tests were carried out on anaesthetised Sprague Dawley rats (about 250 g), previously treated with dibenamine (Dekanski, J., 1952. Br. J. Pharmacol. 7, 567). Maximal blood pressure increase after intravenous injections of peptide was used as a measure of the effect, expressed as intensity.
In addition to potency determination based on effect intensity, a measure of the length of the effect has been stated (index of persistence (I.P.), Pli ? ka, V., 1966. Arzheim. Forsch. 16, 886). This dimensionless factor is a measure of the effect duration of the respective analog in relation to the standard AVP.
In these two tests, a comparison was made between the effects of the respective derivative and the effect of a standard preparation, AVP, and potency was determined with the aid of a 4-point test and is indicated in international units per milligram (IU/mg) (Stürmer, E., i: Handbook of Experimental Pharmacology, 1966, Vol 23, pp 130-189).

Substance | potency in respect of blood pressure increase | specificity (ratio of potency blood pressure/potency antidiuresis, BP/AD) | length of the effect (index of persistence, I.P.)
1-Hmp-2-Phe-8-Dab-VT [compound 5] | very high potency | equivalent or higher specificity | 
1-Hmp-2-Phe-8-Orn(Ala)-VT [compound 6] | surprisingly high blood pressure potency | adequate specificity | considerably prolonged effect
1-Hmp-2-Phe-8-Orn-VT [compound 4] | very high potency | equivalent or higher specificity | 
Gly^o-1-Hmp-2-Phe-8-Orn-VT [compound 7] | surprisingly high blood pressure potency | adequate specificity | considerably prolonged effect

— patent EP0380554B1, “VASOACTIVE PEPTIDES” (Ferring AB, priority 1987, dated 1993)
